According to ChEMBL document CHEMBL1147474, “Synthesis of new 2'-beta-C-methyl related triciribine analogues as anti-HCV agents” (Bioorg Med Chem Lett, 2004):

Columns and labels:
Huh-7 [1] = assay: Cytotoxicity using HCV replicon assay; assay type: functional; settings: Homo sapiens
Huh-7 [2] = assay: Compound was tested for its ability to inhibit hepatitis C viral RNA replication in Huh-7 cells (human hepatoma cells); assay type: functional, cell-based

| EC50 (Huh-7 [2]) [µM] | SMILES | CC50 (Huh-7 [1]) [µM] |
| --- | --- | --- |
| 200 | C[C@@]1(O)[C@H](O)[C@@H](CO)O[C@H]1n1cc2c3c(ncnc31)N(CCO)N=C2N | > 300 |
| 100 | CCCN1N=C(N)c2cn([C@@H]3O[C@H](CO)[C@@H](O)[C@@]3(C)O)c3ncnc1c23 | > 300 |
| 100 | CC(=O)NC1=NN(CCO)c2ncnc3c2c1cn3[C@@H]1O[C@H](CO)[C@@H](O)[C@@]1(C)O | 200 |
| 1 | CCN1N=C(N)c2cn([C@@H]3O[C@H](CO)[C@@H](O)[C@H]3O)c3ncnc1c23 | 150 |
| 18 | CN1N=C(N)c2cn([C@@H]3O[C@H](CO)[C@@H](O)[C@@]3(C)O)c3ncnc1c23 | > 300 |
| 20 | NC1=NN(CCO)c2ncnc3c2c1cn3[C@@H]1O[C@H](CO)[C@@H](O)[C@H]1O | > 300 |
| 150 | CC(=O)NC1=NN(C)c2ncnc3c2c1cn3[C@@H]1O[C@H](CO)[C@@H](O)[C@@]1(C)O | 300 |
| 100 | CCCCN1N=C(N)c2cn([C@@H]3O[C@H](CO)[C@@H](O)[C@@]3(C)O)c3ncnc1c23 | > 300 |
| 15 | CCN1N=C(N)c2cn([C@@H]3O[C@H](CO)[C@@H](O)[C@@]3(C)O)c3ncnc1c23 | > 200 |
| 125 | NC1=NN(Cc2ccccc2)c2ncnc3c2c1cn3[C@@H]1O[C@H](CO)[C@@H](O)[C@H]1O | > 300 |
